How the values were obtained:
Hepg 2 cells = experiment: Slide in situ hybridization, DMSO plus one additional compound (Example 2), HYR probe; assay type: cell-based, human; settings: 10% (v/v) additional compound with 9% DMSO; slide rating x 0.5, water control = 2; average of four experiments
Experimental: Slide in situ Cell Preparation and Hybridization Protocol
1) Cells were suspended in a fixative (3 vol ethanol plus 1 vol methanol) and transferred to glass slides by centrifugation using a Cytospin apparatus.
2) The assay solution (consisting of the hybridization cocktail HC alone or mixed with a compound or compounds being tested as an enhancer) with the DNA probe (25 ul) was placed over the cells and covered with a coverslip.
3) The slide was heated at 90° C. for 5 minutes for DNA denaturation, then incubated at 46° C. for 30 minutes for hybridization.
4) Cells were washed once with the wash solution #1, which was equilibrated at 42° C. Then cells were washed ten times with wash solution #2, which was equilibrated at 42° C.
5) Mounting solution (50% glycerol (v/v) in 1×PBS plus the nuclear stain Hoechst, (#33258; 1 ug/ml) was placed on the cells and covered with a coverslip.
6) The hybridization signal was observed under an Olympus BH10 microscope with fluorescent capabilities using a rhodamine derivative filters (excitation wavelength of 567 nm, emission wavelength of 584 nm).
The inclusion of DMSO in an in situ assay solution increased the permeation of the nucleic acid probes into the cells and gave hybridization signal in over 95% of the cells. In this Example, we show the effect of adding, in addition to DMSO, 10 percent (v/v) of an additional compound to the assay solution. The additional compounds added were: squalane (an aliphatic alkane), dodecyl alcohol (an alcohol), beta-cyclodextrin (a sugar), isopropyl palmitate (a fatty acid ester), 1,2, propanediol (an alcohol), pyrrolidinone (a lactam) and hexamethyldisiloxane (an organic silane).
In this Example, the hybridization cocktail consisted of nine volumes of HC-DMSO plus one volume of an additional compound. In the control sample, one volume of water was added instead of one volume of additional compound. As a result, in all samples, the concentration of DMSO in the cocktail was 9 percent (v/v).
The Slide In Situ Cell Preparation and Hybridization protocol was followed. The cells used were Hepg 2 cells. The probe used was an HYR probe specific for human Y chromosome α-satellite DNA repeated sequences; at its 5' end, via an Aminolink linker molecule, the probe was linked to a Texas Red moiety. A signal intensity of 4 was assigned to the slide in which the assay solution was HC plus 10% DMSO (control slide) and all other slides were rated 1, 2, 3 or 4 in comparison to the control slide, depending on whether the intensity was 1, 2, 3, or 4 times that of the control slide, respectively.
The results are an average of four independent experiments.

Hela cells = experiment: Liquid in situ hybridization with flow cytometry, DMSO plus additional compound (Example 4), 28S RNA and NR probes; assay type: cell-based; settings: for 28S RNA Probe, mean LFL1 / NR Probe, mean LFL1 / Ratio 28S RNA/NR (ratio of mean LFL1): 10% additional compound with 9% DMSO; for 28S RNA Probe, mean LFL1: FITC 28S RNA probe, water control 6.070, average of four experiments; for NR Probe, mean LFL1: FITC NR probe (non-specific binding and autofluorescence), water control 0.137; for Ratio 28S RNA/NR (ratio of mean LFL1): water control 44; for Signal brightness compared to nine percent DMSO alone: additional compound in combination with nine percent DMSO; for Signal intensity after precipitation (biphasic mixture): 10 percent compound with 9% DMSO
Description: (§1) A Coulter Profile II flow cytometer was used for flow cytometry. With FITC as the probe dye, the filter for LFL3 was a 635 nm long pass filter and the filter for LFL1 was a 540 bp filter; the excitation wavelength was 488 nm. PMT1 and PMT3 settings were adjusted as required. A typical useful setting when fluorescein is the dye moiety is to have a PMT1 setting of 1100, a PMT3 setting of 900, and color compensation (PMT1, PMT3) of 15 percent.
(§2) Liquid in Situ Cell Preparation and Hybridization Protocol
(§3) 1. Cells were fixed in solution F, then resuspended in 2x SSC.
(§4) 2. The cells were spun out of solution and resuspended in an assay solution (consisting of the hybridization cocktail HC alone or in combination with a compound or compounds being tested as an enhancer.)
(§5) 3. After 30 min. at 42° C., the cells were washed in wash solution #1 preheated to 42° C. by centrifuging them out of the assay solution.
(§6) 4. Cells were next washed in wash solution #2 preheated to 42° C.
(§7) 5. Cells were resuspended in a 1X PBS solution containing 0.002% trypan blue as a counterstain.
(§8) 6. Cells were run on a flow cytometer and a "Count vs. LFL1" histogram was generated. ("Count" refers to cell count.) This histogram was used as the basis for determining the mean LFL1.
The effect on probe signal intensity of adding, in addition to DMSO, additional compounds to the assay solution was determined in an in situ liquid hybridization assay. The data was analyzed by flow cytometry.
The Liquid In Situ Cell Preparation and Hybridization Protocol was followed. The cells used were Hela cells. The probes used were a 28S RNA probe (SEQ ID NO: 1) and an NR probe.
The 28S RNA probe (SEQ ID NO: 1) is a target-specific probe specific for ribosomal RNA fluorescence obtained with it represents the sum of fluorescence from target-bound probe, non-specifically bound probe and autofluorescence from cellular molecules. The NR probe (SEQ ID NO: 2) is specific for a plant nucleic acid sequence and, in the current Example, the fluorescence obtained with it represent the sum of fluorescence from non-specifically bound probe and autofluorescence.
(§9) In this experiment, the hybridization cocktail consisted of nine volumes of HC-DMSO plus one volume of additional compound. In the control sample, one volume of water replaced the one volume of additional compound. As a result, in all samples, the concentration of DMSO was 9 percent (v/v).
The ratio, 28S/NR, is the ratio of the mean LFL1 observed with the 28S RNA probe (SEQ ID NO: 1) to the mean LFL1 observed with the NR probe (SEQ ID NO: 2). The results in the "28S RNA probe" and "NR probe" columns give the mean LFL1 observed with the 28S RNA and NR probes, respectively (SEQ ID NO: 1 and SEQ ID NO: 2, respectively).

[1] = tested on: Human female white blood cells (karyotype XX); experiment: Signal enhancers in the mounting solution after in situ hybridization (Example 6), HXR probes, fluorescent microscope; assay type: cell-based; settings: one volume compound plus 9 volumes mounting solution; rhodamine HXR probes; water control = 1
Experimental: After the in situ hybridization step, the cells were washed and then modified mounting solution was added and cells were observed under the microscope for fluorescence signal. Modified mounting solution was 9 volumes of mounting solution and one volume of additional compound, which was the compound being tested for its ability to be a signal enhancer. Mounting solution consisted of 0.1% 1,4 diphenylamine (antifade) in 50% glycerol (v/v), and nuclear stain Hoechst (#33258; 1 ug/ml).
Human female white blood cells (karyotype XX) were hybridized at 85° C. for 15 minutes with female chromosome HXR probes labelled with a rhodamine fluor. Cells were washed with wash buffers #1 and #2, and then suspended in a modified mounting solution. The additional compound in the modified mounting solution was varied; as a control, water was used as the additional compound. The signal intensity was observed under the fluorescent microscope.

α-satellite DNA = experiment: Liquid in situ hybridization with flow cytometry, DMSO plus squalane plus additional compound (Example 5), α-satellite DNA and NR probes; assay type: cell-based; settings: for NR Probe, mean LFL1: DMSO-only control 0.175; for α-SAT Probe, mean LFL1: DMSO-only control 3.829; for Ratio α-SAT/NR (ratio of mean LFL1): DMSO-only control 22; for Increase of DNA probe signal intensity compared to 9% DMSO alone: DMSO plus squalane plus the additional compound
Description: as §1, §2, §3, §4, §5, §6, §7, §8
The Liquid In Situ Cell Preparation and Hybridization Protocol was followed.
The "α-satellite" DNA probe is a target specific probe specific α-satellite DNA. Fluorescence obtained with it represents the sum of fluorescence from target-bound probe, non-specifically bound probe and autofluorescence from cellular molecules.
The effect of a combination of DMSO and squalane on the probe signal was measured as was that combination further enhanced with a third compound.
In this Example, in all but two cases, the hybridization cocktail consisted of 9 volumes of HC-DMSO, a half volume of squalane, and a half volume of an additional compound. In one case, the additional compound was replaced by water, so that the hybridization compound consisted of 9 volumes of HC-DMSO, a half volume of squalane, and a half volume of water. In the control sample, the cocktail consisted of nine volumes of HC-DMSO and one volume of water. As a result, in all samples, there was 9 percent DMSO (v/v). When present, squalane was present at 5 percent. When present, the additional compound was present at 5%.
The ratio, α-SAT/NR, is the ratio of the mean LFL1 for the α-satellite DNA probe ([…]) to the mean LFL1 for the NR probe.

[2] = Precipitation of additional compound from the hybridization cocktail (Example 4); assay type: physicochemical; settings: 10 percent in hybridization cocktail (HC-DMSO)
Description: as §9

[3] = 5% squalane with 9% DMSO, water instead of additional compound
[4] = 5% additional compound with 5% squalane and 9% DMSO

Precipitation from solution [2]	Compound	Fluorescent signal (Scale of 1 to 4) (Hepg 2 cells)	28S RNA Probe, mean LFL1 (Hela cells)	NR Probe, mean LFL1 (Hela cells)	Ratio 28S RNA/NR (ratio of mean LFL1) (Hela cells)	Signal brightness compared to nine percent DMSO alone (Hela cells)	Signal Intensity Scale of 1 to 4 [1]	Signal intensity after precipitation (biphasic mixture) (Hela cells)	NR Probe, mean LFL1 (α-satellite DNA; [3])	α-SAT Probe, mean LFL1 (α-satellite DNA; [3])	Ratio α-SAT/NR (ratio of mean LFL1) (α-satellite DNA; [3])	Increase of DNA probe signal intensity compared to DMSO alone (α-satellite DNA; squalane plus DMSO)	NR Probe, mean LFL1 (α-satellite DNA; [4])	α-SAT Probe, mean LFL1 (α-satellite DNA; [4])	Ratio α-SAT/NR (ratio of mean LFL1) (α-satellite DNA; [4])	Increase of DNA probe signal intensity compared to 9% DMSO alone (α-satellite DNA)
–	C[Si](C)(C)O[Si](C)(C)C [hexamethyldisiloxane]	1	7.426	0.126	59	increased the signal brightness	2	–	–	–	–	–	–	–	–	–
precipitation from solution	CC(C)CCCC(C)CCCC(C)CCCCC(C)CCCC(C)CCCC(C)C (stereo not drawn) [squalane]	2	0.611	0.123	–	–	3	markedly decreased	0.125	4.604	37	1.68 fold	–	–	–	–
precipitation from solution	CCCCCCCC/C=C\CCCCCCCCO [oleyl alcohol]	1.5	0.731	0.136	–	–	3	markedly decreased	–	–	–	–	–	–	–	–
–	CCCCCCCC/C=C\CCCCCCCC(=O)O [oleic acid]	2	3.643	0.142	26	–	–	–	–	–	–	–	–	–	–	–
–	CC(O)CO (stereo not drawn) [1,2-propanediol]	2	8.227	0.148	56	increased the signal brightness	4	–	–	–	–	–	0.151	5.876	39	1,8 fold
–	hydroxypropylcyclodextrin	–	–	–	–	–	2	–	–	–	–	–	–	–	–	–
–	CCCCCCCCCCCCCCCC(=O)OC(C)C [isopropyl palmitate]	1.5	8.057	0.140	58	increased the signal brightness	4	–	–	–	–	–	0.117	5.988	52	2.4 fold
–	CC(C)=CCC/C(C)=C/CC/C(C)=C/CC/C=C(\C)CC/C=C(\C)CCC=C(C)C [squalene]	–	–	–	–	–	3	–	–	–	–	–	–	–	–	–
–	O=C1CCCN1 [2-pyrrolidinone]	2	10.19	0.133	77	increased the signal brightness	3	–	–	–	–	–	0.135	10.38	77	3.5 fold
–	OC[C@H]1O[C@@H]2O[C@H]3[C@H](O)[C@@H](O)[C@@H](O[C@H]4[C@H](O)[C@@H](O)[C@@H](O[C@H]5[C@H](O)[C@@H](O)[C@@H](O[C@H]6[C@H](O)[C@@H](O)[C@@H](O[C@H]7[C@H](O)[C@@H](O)[C@@H](O[C@H]8[C@H](O)[C@@H](O)[C@@H](O[C@H]1[C@H](O)[C@H]2O)O[C@@H]8CO)O[C@@H]7CO)O[C@@H]6CO)O[C@@H]5CO)O[C@@H]4CO)O[C@@H]3CO [beta-cyclodextrin]	1.5	9.593	0.135	71	increased the signal brightness	–	–	–	–	–	–	0.131	3.720	29	–

From US5521061A, “Enhancement of probe signal in nucleic acid-mediated in-situ hybridization studies” (Aprogenex, Inc., priority 1992, dated 1996)
